These results are taken from publication PMC7721589, “Synthesis and structure-activity relationships for tetrahydroisoquinoline-based inhibitors of Mycobacterium tuberculosis” (Bioorganic & Medicinal Chemistry, 2020).

Each structure is given as a SMILES string. pIC50: −log10 of the molar value. Converted amounts (≈) assume the structure as drawn. Where two headings read alike, the source gives them in different places.

For series [1], the system named is Vero green monkey-derived epithelial kidney cells. Briefly: Mammalian cytotoxicity in Vero cells. The class given is cell-based. The conditions noted are these: Chlorocebus sabaeus.
The target of series [2] is M. smegmatis ATP synthase (Mycolicibacterium smegmatis, UniProt A0R205+A0R206). The series can be described thus: Inhibition of mycobacterial ATP synthase. Format: biochemical. The conditions noted are these: for pIC50: read-out: M. smeg ATPsynth IC50, M. smegmatis ATP synthase.
The test system of series [3] is M.tb strain H37Rv. The series can be described thus: MIC against M.tb H37Rv under non-replicating (LORA) conditions. The conditions noted are these: for MIC LORA: MIC90, Table 1.
Series [4] deals with M.tb strain H37Rv. Briefly: MIC against M.tb H37Rv under aerobic (replicating; MABA) conditions. The class given is cell-based, Mycobacterium tuberculosis. Particulars: Mycobacterium tuberculosis.
Setting [5] is: MIC90, Table 1, read-out: MIC MABA.

Compound `CN1CCN(c2cccc3c2CN(C(=O)Nc2ccc(-c4ccc(OC(F)(F)F)cc4)cn2)CC3)CC1` [Compound 23, 8-(4-Methylpiperazin-1-yl)-N-(5-(4-(trifluoromethoxy)phenyl)pyridin-2-yl)-3,4-dihydroisoquinoline-2(1H)-carboxamide] yielded an IC50 in series [1] (Table 1) of 14 µg/mL (≈ 27.4 µM). Besides, the “selectivity over the human enzyme” value in series [2] (M. smegmatis vs human mitochondrial ATP synthase) is > 80 fold. Besides, in series [2], the negative-log IC50 (pIC50) is 4.92. The “MIC LORA” value in the series with M.tb strain H37Rv [3] was 3.9 µg/mL (≈ 7.62 µM). Besides, in the series with M.tb strain H37Rv [4] (setting [5]), the MIC is 3.6 µg/mL (≈ 7.04 µM).
Take `COc1ccc(N2CCN(C)CC2)c2c1CCN(C(=O)Nc1ccc(-c3ccc(Cl)cc3C)cn1)C2` [Compound 35, N-(5-(4-chloro-2-methylphenyl)pyridin-2-yl)-5-methoxy-8-(4-methylpiperazin-1-yl)-3,4-dihydroisoquinoline-2(1H)-carboxamide]: the melting point lay in the range of 99 to 101 °C. In addition, the IC50 in series [1] (Table 1) was found to be 12 µg/mL (≈ 23.7 µM). Also, the pIC50 in series [2] is 4.90. The “MIC LORA” value against M.tb strain H37Rv [3] is given as 3.1 µg/mL (≈ 6.13 µM). Moreover, the MIC in the series with M.tb strain H37Rv [4] (setting [5]) is 1.9 µg/mL (≈ 3.75 µM).
Take `CCc1ccc(N2CCN(C)CC2)c2c1CCN(C(=O)Nc1ccc(-c3ccc(Cl)cc3C)cn1)C2` [Compound 28, N-(5-(4-Chloro-2-methylphenyl)pyridin-2-yl)-5-ethyl-8-(4-methylpiperazin-1-yl)-3,4-dihydroisoquinoline-2(1H)-carboxamide]: the melting point was 180 to 182 °C. In series [1] (Table 1), this compound gave an IC50 of 12 µg/mL (≈ 23.8 µM). Further, in the series with M.tb strain H37Rv [3], the “MIC LORA” value is reported as 1.8 µg/mL (≈ 3.57 µM). Besides, the MIC in the series on M.tb strain H37Rv [4] (setting [5]) came out at 2.9 µg/mL (≈ 5.75 µM).
On the same counts, the results for `COc1ccc(N2CCN(C)CC2)c2c1CCN(C(=O)Nc1ccc(-c3ccc(C(F)(F)F)cc3Cl)cn1)C2` [Compound 34, N-(5-(2-Chloro-4-(trifluoromethyl)phenyl)pyridin-2-yl)-5-methoxy-8-(4-methylpiperazin-1-yl)-3,4-dihydroisoquinoline-2(1H)-carboxamide] are 61 to 64 °C, 12 µg/mL (≈ 21.4 µM), 3.2 µg/mL (≈ 5.71 µM) and 3.6 µg/mL (≈ 6.43 µM).
In the same order, the values of `CN1CCN(c2cccc3c2CN(C(=O)Cc2ccc(-c4ccc(Cl)cc4)cn2)CC3)CC1` [Compound 43, 2-(5-(4-Chlorophenyl)pyridin-2-yl)-1-(8-(4-methylpiperazin-1-yl)-3,4-dihydroisoquinolin-2(1H)-yl)ethan-1-one] are 49 to 52 °C, 19 µg/mL (≈ 41.2 µM), 20.3 µg/mL (≈ 44 µM) and 14.1 µg/mL (≈ 30.6 µM).
On the same counts, the results for `CSc1ccc(N2CCN(C)CC2)c2c1CCN(Cc1ccc(-c3ccc(Cl)cc3C)cn1)C2` [Compound 14, 2-((5-(4-Chloro-2-methylphenyl)pyridin-2-yl)methyl)-8-(4-methylpiperazin-1-yl)-5-(methylthio)-1,2,3,4-tetrahydroisoquinoline] are 65 to 68 °C, 11 µg/mL (≈ 22.3 µM), 6.0 µg/mL (≈ 12.2 µM) and 3.4 µg/mL (≈ 6.89 µM).
On to `COc1ccc(N2CCN(C)CC2)c2c1CCN(C(=O)N1CCC(Oc3ccc(OC(F)(F)F)cc3)CC1)C2` [Compound 50, (5-Methoxy-8-(4-methylpiperazin-1-yl)-3,4-dihydroisoquinolin-2(1H)-yl)(4-(4-(trifluoromethoxy)phenoxy)piperidin-1-yl)methanone], for which the melting point lay within 49 to 51 °C. Also, half-maximal inhibition in series [1] (Table 1) (IC50) required 15 µg/mL (≈ 27.3 µM). Moreover, in the series with M.tb strain H37Rv [3], the “MIC LORA” value was determined as 7.0 µg/mL (≈ 12.8 µM). Further, the MIC in the series on M.tb strain H37Rv [4] (setting [5]) was determined as 7.6 µg/mL (≈ 13.9 µM).
In the same order, the values of `Cc1cc(Cl)ccc1-c1ccc(CC(=O)N2CCc3cccc(N4CCN(C)CC4)c3C2)nc1` [Compound 47] are 45 to 48 °C, 11 µg/mL (≈ 23.2 µM), 19.4 µg/mL (≈ 40.8 µM) and 14 µg/mL (≈ 29.5 µM).
For the compound `CN1CCN(c2cccc3c2CN(C(=O)c2ccc(-c4ccc(Cl)cc4)cn2)CC3)CC1` [Compound 19, (5-(4-Chlorophenyl)pyridin-2-yl)(8-(4-methylpiperazin-1-yl)-3,4-dihydroisoquinolin-2(1H)-yl)methanone], the melting point lay in the range of 144 to 147 °C. The same compound yielded an IC50 in series [1] (Table 1) of 27 µg/mL (≈ 60.4 µM). In addition, the “MIC LORA” value in the series with M.tb strain H37Rv [3] came out at 20 µg/mL (≈ 44.7 µM). The MIC in the series on M.tb strain H37Rv [4] (setting [5]) is 16 µg/mL (≈ 35.8 µM).
On to `COc1ccc(N2CCN(C)CC2)c2c1CCN(C(=O)Nc1ccc(-c3ccc(OC(F)(F)F)cc3)cn1)C2` [Compound 37, 5-Methoxy-8-(4-methylpiperazin-1-yl)-N-(5-(4-(trifluoromethoxy)phenyl)pyridin-2-yl)-3,4-dihydroisoquinoline-2(1H)-carboxamide], for which the melting point was 196 to 198 °C. In series [1] (Table 1), half-maximal inhibition (IC50) was put at 12 µg/mL (≈ 22.2 µM). The “MIC LORA” value in the series on M.tb strain H37Rv [3] is reported as 3.0 µg/mL (≈ 5.54 µM). The MIC in the series with M.tb strain H37Rv [4] (setting [5]) was found to be 3.1 µg/mL (≈ 5.72 µM).
Turning to `COc1ccc(N2CCN(C)CC2)c2c1CCN(C(=O)Nc1ccc(-c3cncnc3)cn1)C2` [Compound 31, 5-Methoxy-8-(4-methylpiperazin-1-yl)-N-(5-(pyrimidin-5-yl)pyridin-2-yl)-3,4-dihydroisoquinoline-2(1H)-carboxamide], the melting point was in the range of 236 to 239 °C. Besides, the concentration for half-maximal inhibition (IC50) in series [1] (Table 1) was > 32 µg/mL. In addition, the “MIC LORA” value in the series with M.tb strain H37Rv [3] is recorded as >32 µg/mL. Besides, the MIC in the series with M.tb strain H37Rv [4] (setting [5]) is > 32 µg/mL.
`COc1ccc(-c2ccc(NC(=O)N3CCc4c(OC)ccc(N5CCN(C)CC5)c4C3)nc2)cc1` [Compound 33, 5-Methoxy-N-(5-(4-methoxyphenyl)pyridin-2-yl)-8-(4-methylpiperazin-1-yl)-3,4-dihydroisoquinoline-2(1H)-carboxamide] had a melting point of 207 to 209 °C. Moreover, inhibition in series [1] (Table 1) was half-maximal at 16 µg/mL (≈ 32.8 µM) (IC50). The “MIC LORA” value with M.tb strain H37Rv [3] is reported as 7.4 µg/mL (≈ 15.2 µM). Also, the MIC in the series on M.tb strain H37Rv [4] (setting [5]) was 7.1 µg/mL (≈ 14.6 µM).
Turning to `COc1ccc(-c2ccc(NC(=O)N3CCc4c(OC)ccc(N5CCN(C)CC5)c4C3)nc2)cn1` [Compound 32, 5-Methoxy-N-(6′-methoxy-[3,3′-bipyridin]-6-yl)-8-(4-methylpiperazin-1-yl)-3,4-dihydroisoquinoline-2(1H)-carboxamide], the melting point is 93 to 96 °C. This compound came in with a half-inhibitory concentration (IC50) in series [1] (Table 1) of 14 µg/mL (≈ 28.7 µM). Moreover, the “MIC LORA” value against M.tb strain H37Rv [3] is 20 µg/mL (≈ 40.9 µM). The MIC with M.tb strain H37Rv [4] (setting [5]) is 15.5 µg/mL (≈ 31.7 µM).
`Cc1ccc(N2CCN(C)CC2)c2c1CCN(C(=O)N1CCC(Oc3ccccc3C(F)(F)F)CC1)C2` [Compound 49, (5-Methyl-8-(4-methylpiperazin-1-yl)-3,4-dihydroisoquinolin-2(1H)-yl)(4-(2-(trifluoromethyl)phenoxy)piperidin-1-yl)methanone] displayed an IC50 in series [1] (Table 1) of 11 µg/mL (≈ 21.3 µM). In series [2], the negative logarithm of the IC50 (pIC50) was 4.92. Besides, the “MIC LORA” value in the series with M.tb strain H37Rv [3] is recorded as 7.3 µg/mL (≈ 14.1 µM). Also, the MIC in the series on M.tb strain H37Rv [4] (setting [5]) was found to be 7.7 µg/mL (≈ 14.9 µM).
For `COc1ccc(N2CCN(C)CC2)c2c1CCN(C(=O)N1CCC(Oc3ccccc3C(F)(F)F)CC1)C2` [Compound 51, (5-Methoxy-8-(4-methylpiperazin-1-yl)-3,4-dihydroisoquinolin-2(1H)-yl)(4-(2-(trifluoromethyl)phenoxy)piperidin-1-yl)methanone], the melting point was 74 to 77 °C. In series [1] (Table 1), the IC50 was 24 µg/mL (≈ 45.1 µM). Also, in the series with M.tb strain H37Rv [3], the “MIC LORA” value came to 10.0 µg/mL (≈ 18.8 µM). For the same compound, in the series with M.tb strain H37Rv [4] (setting [5]), the MIC was 12 µg/mL (≈ 22.5 µM).
As to `Cc1cc(Cl)ccc1-c1ccc(CN2CCc3c(C)ccc(N4CCSCC4)c3C2)nc1` [Compound 54, 4-(2-((5-(4-Chloro-2-methylphenyl)pyridin-2-yl)methyl)-5-methyl-1,2,3,4-tetrahydroisoquinolin-8-yl)yhiomorpholine], the melting point lay in the range of 133 to 135 °C. Also, the IC50 in series [1] (Table 2) is > 32 µg/mL. Also, in the series with M.tb strain H37Rv [3] (MIC90, Table 2), the “MIC (µg/mL) LORA” value is listed as 5.9 µg/mL (≈ 12.7 µM). Further, the MIC in the series on M.tb strain H37Rv [4] (MIC90, Table 2, read-out: MIC (µg/mL) MABA) is 3.4 µg/mL (≈ 7.33 µM).
